# From patent US10076519B2 (CYTOKINETICS, INC., priority 2010, dated 2018)
# Tested on: rabbit skeletal myofibrils (fast skeletal myofibrils)
# Test: Activation of fast skeletal myofibrils (PUMA assay, PK/LDH-coupled ATPase at pCa25)
# Assay type: biochemical
# Conditions: AC1.4 determined according to the procedure of Example 39; reported as class symbols
# Outline: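 ATPase activity of Triton-washed rabbit skeletal myofibrils, roughly 90% fast fibres, tracked by NADH loss at 340 nm through a PK/LDH-coupled ADP-regenerating system. Calcium set to 25% of maximal activity (pCa25), in PIPES 12 mM pH 6.8 with 2 mM MgCl2 and 1 mM DTT; AC1.4 reported.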
row,Mean AC1.4,SMILES
1,D (D=>20 uM),CC(=O)N1CC(CNc2ccc(-c3cccc(C(N)=O)c3)nn2)(c2ncccc2F)C1 [3-[6-({[1-acetyl-3-(3-fluoro(2-pyridyl))azetidin-3-yl]methyl}amino)pyridazin-3-yl]benzamide]
2,D (D=>20 uM),NC(=O)c1cccc(-c2ccc(NCC3(c4ncccc4F)CNC3)nn2)c1 [3-[6-({[3-(3-fluoro-2-pyridyl)azetidin-3-yl]methyl}amino)pyridazin-3-yl]benzamide]

# Further lines, the compound ahead of its results:
row,SMILES,Mean AC1.4
1,CS(=O)(=O)N1CC(CNc2ccc(-c3cccc(C(N)=O)c3)nn2)(c2ncccc2F)C1 [3-[6-({[3-(3-fluoro(2-pyridyl))-1-(methylsulfonyl)azetidin-3-yl]methyl}amino)pyridazin-3-yl]benzamide],D (D=>20 uM)
2,NC(=O)c1cccc(-c2ccc(NCC3(c4ccc(F)cc4)COC3)nn2)c1 [3-[6-({[3-(4-fluorophenyl)oxetan-3-yl]methyl}amino)pyridazin-3-yl]benzamide],D (D=>20 uM)
3,NC(=O)c1cccc(-c2ccc(NCC3(c4ccccc4Cl)CC3)nn2)c1 [3-[6-({[(2-chlorophenyl)cyclopropyl]meth-yl}amino)pyridazin-3-yl]benzamide],A (A=<1 uM)
4,CC(C)(CNc1ccc(-c2cc(F)cc(C(N)=O)c2)nn1)c1ccc(F)cc1 [3-fluoro-5-(6-{[2-(4-fluorophenyl)-2-methylpropyl]amino}pyridazin-3-yl)benzamide],B (B=1-10 uM)

# Same assay, conditions: median AC1.4 class, procedure of Example 39
row,Mean AC1.4,SMILES
1,B (B=1-10 uM),NC(=O)c1ccc(O)c(-c2ccc(NC[C@]3(c4ncccc4F)C[C@H](F)C3)nn2)c1 [3-[6-({[3-fluoro-1-(3-fluoro(2-pyridyl))cyclobutyl]methyl}ami-no)pyridazin-3-yl]-4-hydroxybenzamide]
2,A (A=<1 uM),NC(=O)c1cccc(-c2ccc(NC[C@]3(c4ncccc4F)C[C@H](F)C3)nn2)c1 [3-[6-({[3-fluoro-1-(3-fluoro(2-pyridyl))cyclobutyl]methyl}ami-no)pyridazin-3-yl]benzamide]
3,B (B=1-10 uM),N#Cc1cccc(-c2ccc(NC[C@]3(c4ncccc4F)C[C@H](F)C3)nn2)c1 [3-[6-({[3-fluoro-1-(3-fluoro(2-pyridyl))cyclobutyl]methyl}ami-no)pyridazin-3-yl]benzenecarbonitrile]
4,B (B=1-10 uM),NS(=O)(=O)c1cccc(-c2ccc(NC[C@]3(c4ncccc4F)C[C@H](F)C3)nn2)c1 [3-[6-({[3-fluoro-1-(3-fluoro(2-pyridyl))cyclobutyl]methyl}ami-no)pyridazin-3-yl]benzenesulfonamide]
5,A (A=<1 uM),O=C(O)c1cccc(-c2ccc(NC[C@]3(c4ncccc4F)C[C@H](F)C3)nn2)c1 [3-[6-({[3-fluoro-1-(3-fluoro(2-pyridyl))cyclobutyl]methyl}ami-no)pyridazin-3-yl]benzoic acid]

# Continued, compound first:
row,SMILES,Mean AC1.4
1,CC(C)(Nc1ccc(-c2cc(C(N)=O)ccc2F)nn1)c1cccc(OC(F)F)n1 [3-[6-({1-[6-(difluoromethoxy)(2-pyridyl)]-isopropyl}amino)pyridazin-3-yl]-4-fluorobenzamide],A (A=<1 uM)
2,CC(C)(Nc1ccc(-c2cccc(C(N)=O)c2)nn1)c1cccc(OC(F)F)n1 [3-[6-({1-[6-(difluoromethoxy)(2-pyridyl)]-isopropyl}amino)pyridazin-3-yl]benzamide],B (B=1-10 uM)
3,"NC(=O)c1nc(-c2ccc(NCC3(c4ncccc4F)CCC3)nn2)no1 [3-[6-({[(3-fluoro-2-pyridyl)cyclobutyl]methyl}ami-no)pyridazin-3-yl]-1,2,4-oxadiazole-5-carboxamide]",B (B=1-10 uM)
4,"O=c1[nH]nc(-c2ccc(NCC3(c4ncccc4F)CCC3)nn2)[nH]1 [3-[6-({[(3-fluoro-2-pyridyl)cyclobutyl]methyl}ami-no)pyridazin-3-yl]-1,2,4-triazolin-5-one]",C (C=10-20 uM)
5,O=c1cc(-c2ccc(NCC3(c4ncccc4F)CCC3)nn2)[nH][nH]1 [3-[6-({[(3-fluoro-2-pyridyl)cyclobutyl]methyl}ami-no)pyridazin-3-yl]-3-pyrazolin-5-one],B (B=1-10 uM)
6,"O=c1[nH]c(-c2cnc(-c3ccc(NCC4(c5ncccc5F)CCC4)nn3)s2)no1 [3-{2-[6-({[(3-fluoro-2-pyridyl)cyclobutyl]methyl}ami-no)pyridazin-3-yl]-1,3-thiazol-5-yl}-1,2,4-oxadiazolin-5-one]",B (B=1-10 uM)
7,"O=c1[nH]nc(-c2cnc(-c3ccc(NCC4(c5ncccc5F)CCC4)nn3)s2)[nH]1 [3-{2-[6-({[(3-fluoro-2-pyridyl)cyclobutyl]methyl}ami-no)pyridazin-3-yl]-1,3-thiazol-5-yl}-1,2,4-triazolin-5-one]",A (A=<1 uM)

# Same assay, conditions: median AC1.4 reported as class; procedure of Example 39
row,Mean AC1.4,SMILES
1,A (A=<1 uM),NC(=O)c1cccc(-c2ccc(NC[C@]3(c4ncccc4F)C[C@H](F)C3)nn2)c1O [3-[6-({[3-fluoro-1-(3-fluoro(2-pyridyl))cyclobutyl]methyl}ami-no)pyridazin-3-yl]-2-hydroxybenzamide]
2,B (B=1-10 uM),N#Cc1cccc(-c2ccc(NC[C@]3(c4ncccc4F)C[C@H](F)C3)nn2)c1O [3-[6-({[3-fluoro-1-(3-fluoro(2-pyridyl))cyclobutyl]methyl}ami-no)pyridazin-3-yl]-2-hydroxybenzenecarbonitrile]
3,C (C=10-20 uM),O=C(O)c1cccc(-c2ccc(NC[C@]3(c4ncccc4F)C[C@H](F)C3)nn2)c1O [3-[6-({[3-fluoro-1-(3-fluoro(2-pyridyl))cyclobutyl]methyl}ami-no)pyridazin-3-yl]-2-hydroxybenzoic acid]
4,D (D=>20 uM),COc1c(C(N)=O)cccc1-c1ccc(NC[C@]2(c3ncccc3F)C[C@H](F)C2)nn1 [3-[6-({[3-fluoro-1-(3-fluoro(2-pyridyl))cyclobutyl]methyl}ami-no)pyridazin-3-yl]-2-methoxybenzamide]
5,B (B=1-10 uM),NC(=O)c1cc(-c2ccc(NC[C@]3(c4ncccc4F)C[C@H](F)C3)nn2)cc(C(F)(F)F)c1 [3-[6-({[3-fluoro-1-(3-fluoro(2-pyridyl))cyclobutyl]methyl}ami-no)pyridazin-3-yl]-5-(trifluoromethyl)benzamide]
6,A (A=<1 uM),NC(=O)c1cc(O)cc(-c2ccc(NC[C@]3(c4ncccc4F)C[C@H](F)C3)nn2)c1 [3-[6-({[3-fluoro-1-(3-fluoro(2-pyridyl))cyclobutyl]methyl}ami-no)pyridazin-3-yl]-5-hydroxybenzamide]
7,B (B=1-10 uM),Cc1cc(C(N)=O)cc(-c2ccc(NC[C@]3(c4ncccc4F)C[C@H](F)C3)nn2)c1 [3-[6-({[3-fluoro-1-(3-fluoro(2-pyridyl))cyclobutyl]methyl}ami-no)pyridazin-3-yl]-5-methylbenzamide]
8,C (C=10-20 uM),Cc1cc(NCC2(c3ncccc3F)CCC2)nnc1-c1cccc(C(N)=O)c1 [3-[6-({[(3-fluoro(2-pyridyl))cyclobutyl]methyl}ami-no)-4-methylpyridazin-3-yl]benzamide]
9,B (B=1-10 uM),NC(=O)c1ccc(O)c(-c2ccc(NCC3(c4ncccc4F)CCC3)nn2)c1 [3-[6-({[(3-fluoro(2-pyridyl))cyclobutyl]methyl}ami-no)pyridazin-3-yl]-4-hydroxybenzamide]

# The remaining lines, values behind:
row,SMILES,Mean AC1.4
1,COc1c(C#N)cccc1-c1ccc(NC[C@]2(c3ncccc3F)C[C@H](F)C2)nn1 [3-[6-({[3-fluoro-1-(3-fluoro(2-pyridyl))cyclobutyl]methyl}ami-no)pyridazin-3-yl]-2-methoxybenzenecarbonitrile],C (C=10-20 uM)
2,Cc1cc(NCC2(c3ncccc3F)CCC2)nnc1-c1cccc(C#N)c1 [3-[6-({[(3-fluoro(2-pyridyl))cyclobutyl]methyl}ami-no)-4-methylpyridazin-3-yl]benzenecarbonitrile],C (C=10-20 uM)
3,Cc1cc(C(N)=O)c(O)c(-c2ccc(NCC3(c4ncccc4F)CCC3)nn2)c1 [3-[6-({[(3-fluoro(2-pyridyl))cyclobutyl]methyl}ami-no)pyridazin-3-yl]-2-hydroxy-5-methylbenzamide],B (B=1-10 uM)
4,Cc1cc(C#N)c(O)c(-c2ccc(NCC3(c4ncccc4F)CCC3)nn2)c1 [3-[6-({[(3-fluoro(2-pyridyl))cyclobutyl]methyl}ami-no)pyridazin-3-yl]-2-hydroxy-5-methylbenzenecarbonitrile],B (B=1-10 uM)
5,NC(=O)c1cccc(-c2ccc(NCC3(c4ncccc4F)CCC3)nn2)c1O [3-[6-({[(3-fluoro(2-pyridyl))cyclobutyl]methyl}ami-no)pyridazin-3-yl]-2-hydroxybenzamide],A (A=<1 uM)
6,"CC1(C)C(=O)NN=C1c1ccc(NCC2(c3ncccc3F)CCC2)nn1 [3-[6-({[(3-fluoro(2-pyridyl))cyclobutyl]methyl}ami-no)pyridazin-3-yl]-4,4-dimethyl-2-pyrazolin-5-one]",D (D=>20 uM)
7,O=C(O)c1ccc(O)c(-c2ccc(NCC3(c4ncccc4F)CCC3)nn2)c1 [3-[6-({[(3-fluoro(2-pyridyl))cyclobutyl]methyl}ami-no)pyridazin-3-yl]-4-hydroxybenzoic acid],C (C=10-20 uM)
8,Cc1c(-c2ccc(NCC3(c4ncccc4F)CCC3)nn2)[nH][nH]c1=O [3-[6-({[(3-fluoro(2-pyridyl))cyclobutyl]methyl}ami-no)pyridazin-3-yl]-4-methyl-3-pyrazolin-5-one],D (D=>20 uM)
9,Cc1cc(-c2cccc(C(N)=O)c2)nnc1NCC1(c2ncccc2F)CCC1 [3-[6-({[(3-fluoro(2-pyridyl))cyclobutyl]methyl}amino)-5-methylpyridazin-3-yl]benzamide],D (D=>20 uM)
10,"NC(=O)CCc1cnc(-c2ccc(NCC3(c4ncccc4F)CCC3)nn2)s1 [3-{2-[6-({[(3-fluoro-2-pyridyl)cyclobutyl]methyl}ami-no)pyridazin-3-yl]-1,3-thiazol-5-yl}propanamide]",B (B=1-10 uM)
